Test results reported in ChEMBL document CHEMBL1201862, “PubChem BioAssay data set” (2004).
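Assay format: 96-well plates, 48-hour exposure. Abbreviation: GI50, concentration required for 50% inhibition of growth.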 The source made the active and inactive calls. Cut-off read from the data, not from the text of the source: active = GI50 up to about 1.1 µM and inactive = higher.

Legend:
Assay in all cases: DTP human tumour cell line panel, 48 h
SF-295 = system: SF-295
T47D = system: T47D
NCI-H23 = system: NCI-H23
SNB-75 = system: SNB-75
K562 = system: K562
SK-OV-3 = system: SK-OV-3
NCI-H460 = system: NCI-H460
HOP-92 = system: HOP-92
SK-MEL-28 = system: SK-MEL-28
Hs-578T = system: Hs-578T
LOX IMVI = system: LOX IMVI
DU-145 = system: DU-145
RXF 393 = system: RXF 393
UO-31 = system: UO-31
PC-3 = system: PC-3
A549 = system: A549
CAKI-1 = system: CAKI-1
RPMI-8226 = system: RPMI-8226
M14 = system: M14
HCC 2998 = system: HCC 2998

SMILES	GI50 (SF-295)	GI50 (T47D)	GI50 (NCI-H23)	GI50 (SNB-75)	GI50 (K562)	GI50 (SK-OV-3)	GI50 (NCI-H460)	GI50 (HOP-92)	GI50 (SK-MEL-28)	GI50 (Hs-578T)	GI50 (LOX IMVI)	GI50 (DU-145)	GI50 (RXF 393)	GI50 (UO-31)	GI50 (PC-3)	GI50 (A549)	GI50 (CAKI-1)	GI50 (RPMI-8226)	GI50 (M14)	GI50 (HCC 2998)
O=C(c1ccccc1)c1ccc2nc3n(c2c1)C(c1c(F)cccc1F)SC3 (stereo not given)	3.2 µM (inactive)	4.49 µM (inactive)	9.4 µM (inactive)	4.17 µM (inactive)	3.31 µM (inactive)	4.1 µM (inactive)	3.98 µM (inactive)	10.9 µM (inactive)	22.3 µM (inactive)	8.55 µM (inactive)	6.11 µM (inactive)	11.3 µM (inactive)	13.2 µM (inactive)	5.4 µM (inactive)	6.89 µM (inactive)	4.79 µM (inactive)	5.13 µM (inactive)	4.62 µM (inactive)	3.46 µM (inactive)	5.25 µM (inactive)
COc1ccc2[nH]c3c(C)c4ccnc(NCCCN(C)CCCN)c4c(C)c3c2c1	0.214 µM (active)	0.213 µM (active)	0.202 µM (active)	0.0257 µM (active)	0.118 µM (active)	0.838 µM (active)	0.091 µM (active)	0.13 µM (active)	0.719 µM (active)	0.0364 µM (active)	0.198 µM (active)	0.196 µM (active)	0.0622 µM (active)	0.207 µM (active)	0.259 µM (active)	0.0442 µM (active)	0.156 µM (active)	0.281 µM (active)	0.171 µM (active)	0.159 µM (active)
CC(=O)OC1COC(n2nc(/C=C/c3ccc(Cl)cc3)c(=O)n(/N=C/c3ccccc3)c2=S)C(OC(C)=O)C1OC(C)=O (stereo not given)	> 100 µM (inactive)	> 100 µM (inactive)	> 100 µM (inactive)	> 100 µM (inactive)	> 100 µM (inactive)	> 100 µM (inactive)	> 100 µM (inactive)	> 100 µM (inactive)	> 100 µM (inactive)	> 100 µM (inactive)	> 100 µM (inactive)	> 100 µM (inactive)	> 100 µM (inactive)	> 100 µM (inactive)	> 100 µM (inactive)	> 100 µM (inactive)	> 100 µM (inactive)	> 100 µM (inactive)	> 100 µM (inactive)	> 100 µM (inactive)
CCN(CC)C1=Nc2ccccc2-n2c(C)cnc2C1	> 100 µM (inactive)	> 100 µM (inactive)	> 100 µM (inactive)	> 100 µM (inactive)	> 100 µM (inactive)	> 100 µM (inactive)	> 100 µM (inactive)	> 100 µM (inactive)	> 100 µM (inactive)	> 100 µM (inactive)	> 100 µM (inactive)	> 100 µM (inactive)	> 100 µM (inactive)	> 88.7 µM (inactive)	> 100 µM (inactive)	> 100 µM (inactive)	> 100 µM (inactive)	95.5 µM (inactive)	> 100 µM (inactive)	> 100 µM (inactive)
CC(=O)OCC(OC(C)=O)C(OC(C)=O)C(OC(C)=O)C(/C=N\Nc1nc2ccccc2c(=O)[nH]1)=N/Nc1nc2ccccc2c(=O)[nH]1 (stereo not given)	> 100 µM (inactive)	> 100 µM (inactive)	> 100 µM (inactive)	> 100 µM (inactive)	> 100 µM (inactive)	> 100 µM (inactive)	> 100 µM (inactive)	> 100 µM (inactive)	> 100 µM (inactive)	> 100 µM (inactive)	> 100 µM (inactive)	> 100 µM (inactive)	> 100 µM (inactive)	> 100 µM (inactive)	> 100 µM (inactive)	> 100 µM (inactive)	> 100 µM (inactive)	> 100 µM (inactive)	> 100 µM (inactive)	85.5 µM (inactive)
CN1[C@@H]2CCCC[C@H]2N(C)P1(=O)C(O)/C=C/c1ccccc1 (stereo not given in full)	> 100 µM (inactive)	> 100 µM (inactive)	> 100 µM (inactive)	> 100 µM (inactive)	> 100 µM (inactive)	> 100 µM (inactive)	> 100 µM (inactive)	> 100 µM (inactive)	> 100 µM (inactive)	> 100 µM (inactive)	> 100 µM (inactive)	> 100 µM (inactive)	> 100 µM (inactive)	> 100 µM (inactive)	> 100 µM (inactive)	> 100 µM (inactive)	> 100 µM (inactive)	> 100 µM (inactive)	> 100 µM (inactive)	> 100 µM (inactive)
CCOP(=O)(OCC)/C(F)=C/c1ccc(F)cc1	> 100 µM (inactive)	> 100 µM (inactive)	> 100 µM (inactive)	> 100 µM (inactive)	> 100 µM (inactive)	> 100 µM (inactive)	> 100 µM (inactive)	> 100 µM (inactive)	> 100 µM (inactive)	> 100 µM (inactive)	> 100 µM (inactive)	> 100 µM (inactive)	> 100 µM (inactive)	> 100 µM (inactive)	> 100 µM (inactive)	> 100 µM (inactive)	> 100 µM (inactive)	> 100 µM (inactive)	> 100 µM (inactive)	> 10 µM (inactive)
